Reference: PubChem BioAssay (NCI)
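Step 1: Grow cells in 96-well plates. Step 2: Expose to compound for 48 hours at 5 concentrations. Step 3: Interpolate endpoints linearly; if unreached, use highest concentration. TGI is the concentration that stops growth completely.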

Assays:
Assay in all cases: NCI tumour cell line growth inhibition, 48 h
[1] = system: UACC-62 melanoma
[2] = system: IGROV1 ovarian
[3] = system: SF-539 CNS
[4] = system: DMS 114 small cell lung
[5] = system: SK-OV-3 ovarian
[6] = system: RXF 393 renal
[7] = system: HL-60(TB) leukemia
[8] = system: LOX IMVI melanoma
[9] = system: SNB-78 CNS
[10] = system: SNB-75 CNS
[11] = system: HCT-15 colon
[12] = system: UO-31 renal
[13] = system: HCT-116 colon
[14] = system: NCI-H522 lung
[15] = system: OVCAR-5 ovarian
[16] = system: SR leukemia
[17] = system: M19-MEL melanoma
[18] = system: MOLT-4 leukemia
[19] = system: XF 498 CNS
[20] = system: OVCAR-4 ovarian
[21] = system: HOP-18 NSCLC
[22] = system: OVCAR-3 ovarian
[23] = system: SF-268 CNS
[24] = system: CCRF-CEM leukemia
[25] = system: HT29 colon
[26] = system: P388 leukemia
[27] = system: NCI-H226 lung
[28] = system: SK-MEL-28 melanoma
[29] = system: HOP-92 NSCLC
[30] = system: HOP-62 NSCLC
[31] = system: P388/ADR leukemia
[32] = system: TK-10 renal
[33] = system: DLD-1 colon
[34] = system: SNB-19 CNS
[35] = system: HCC-2998 colon
[36] = system: A549 NSCLC
[37] = system: M14 melanoma
[38] = system: CAKI-1 renal
[39] = system: OVCAR-8 ovarian
[40] = system: SW-620 colon
[41] = system: RPMI-8226 leukemia
[42] = system: MCF7 breast
[43] = system: SN12K1 renal
[44] = system: KM20L2 colon
[45] = system: SK-MEL-2 melanoma
[46] = system: SF-295 CNS
[47] = system: 786-0 renal
[48] = system: MALME-3M melanoma
[49] = system: COLO 205 colon
[50] = system: EKVX NSCLC
[51] = system: ACHN renal
[52] = system: NCI-H460 lung
[53] = system: NCI/ADR-RES ovarian
[54] = system: KM12 colon
[55] = system: SK-MEL-5 melanoma
[56] = system: DMS 273 small cell lung
[57] = system: U251 CNS
[58] = system: LXFL 529 NSCLC
[59] = system: UACC-257 melanoma
[60] = system: A498 renal
[61] = system: K-562 leukemia
[62] = system: NCI-H23 lung
[63] = system: SN12C renal

SMILES: O=C(O)/C=C/C(=O)N1C/C(=C\c2ccccc2)C(=O)/C(=C/c2ccccc2)C1
- TGI [1]: 8.7 µM
- TGI [2]: 31.9 µM
- TGI [3]: 26.7 µM
- TGI [4]: 8.78 µM
- TGI [5]: 42.7 µM
- TGI [6]: 17.5 µM
- TGI [7]: 26.6 µM
- TGI [8]: 10.5 µM
- TGI [9]: 24.2 µM
- TGI [10]: 20.6 µM
- TGI [11]: 20.6 µM
- TGI [12]: 24.9 µM
- TGI [13]: 3.48 µM
- TGI [14]: 4.94 µM
- TGI [15]: 31.8 µM
- TGI [16]: 41.6 µM
- TGI [17]: 9.41 µM
- TGI [18]: 9.26 µM
- TGI [19]: 15.8 µM
- TGI [20]: 16.4 µM
- TGI [21]: 26.3 µM
- TGI [22]: 15.6 µM
- TGI [23]: 16.8 µM
- TGI [24]: 7.18 µM
- TGI [25]: 21.1 µM
- TGI [26]: 41.6 µM
- TGI [27]: 31.3 µM
- TGI [28]: 15.9 µM
- TGI [29]: 37.9 µM
- TGI [30]: 41.7 µM
- TGI [31]: > 70.7 µM
- TGI [32]: 22.8 µM
- TGI [33]: 12.2 µM
- TGI [34]: 23.6 µM
- TGI [35]: 13.1 µM
- TGI [36]: 52 µM
- TGI [37]: 11.9 µM
- TGI [38]: 31.1 µM
- TGI [39]: 11.7 µM
- TGI [40]: 6.09 µM
- TGI [41]: 6.22 µM
- TGI [42]: 18.3 µM
- TGI [43]: 3.57 µM
- TGI [44]: 17.6 µM
- TGI [45]: 17.2 µM
- TGI [46]: 11.8 µM
- TGI [47]: 10.6 µM
- TGI [48]: 12.3 µM
- TGI [49]: 24.3 µM
- TGI [50]: 44.3 µM
- TGI [51]: 20.9 µM
- TGI [52]: 30.8 µM
- TGI [53]: 61.7 µM
- TGI [54]: 6.07 µM
- TGI [55]: 19 µM
- TGI [56]: 20 µM
- TGI [57]: 3.79 µM
- TGI [58]: 3.72 µM
- TGI [59]: 15.8 µM
- TGI [60]: 34.5 µM
- TGI [61]: 7.86 µM
- TGI [62]: 23.9 µM
- TGI [63]: 15.5 µM
